Data taken from PubChem BioAssay AID1259411 (Chemical Carcinogenesis Research Information System (CCRIS), 2018).
Active and inactive are the calls of the source. How the calls were made is not given here.

Test system: rodent carcinogenicity bioassays, tumor incidence
Experiment: CCRIS carcinogenicity studies
Procedure, shortened: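 NCI-built, expert-reviewed records of carcinogenicity and related test outcomes (mutagenicity, tumor promotion/inhibition) compiled from published and report sources, historical span 1985-2011, not updated.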

CC(C)(c1ccc(O)cc1)c1ccc(O)cc1
carcinogen call (Species: MOUSE, Strain/Sex: B6C3F1/FEMALE, Route: ORAL, Dose: 0, 5000, 10000 PPM IN DIET FOR 103 WK (STUDY DURATION: 103 WK), Dose: 0, 5000, 10000 PPM IN DIET FOR 103 WK (STUDY DURATION: 103 WK)): inactive; negative
carcinogen call (Species: MOUSE, Strain/Sex: B6C3F1/MALE, Route: ORAL, Dose: 0, 1000, 5000 PPM IN DIET FOR 103 WK (STUDY DURATION: 103 WK), Dose: 0, 1000, 5000 PPM IN DIET FOR 103 WK (STUDY DURATION: 103 WK), Tumor Site: Type of Lesion: HEMATOPOIETIC SYSTEM: LYMPHOMA OR LEUKEMIA): equivocal
carcinogen call (Species: Mouse, Strain/Sex: CD-1/Female (24/group); Route: Subcutaneous; Dose: 0; 10; 100; 1000 ug/kg in corn oil, once a day from days 1-5 of life; study duration 18 mo); Dose: 0; 10; 100; 1000 ug/kg in corn oil, once a day from days 1-5 of life; study duration 18 mo), Tumor Site: Type of Lesion: Uterus, leiomyoma (0/18; 1/23; 2/20; 1/16 [multiple lesions]), Tumor Site: Type of Lesion: Uterus, leiomyoma (0/18; 1/23; 2/20; 1/16 [multiple lesions])): inactive; negative (nonneoplastic and preneoplastic lesions observed in ovary/oviduct and
carcinogen call (Species: RAT, Strain/Sex: F344/FEMALE, Route: ORAL, Dose: 0, 1000, 2000 PPM IN DIET FOR 103 WK (STUDY DURATION: 103 WK), Dose: 0, 1000, 2000 PPM IN DIET FOR 103 WK (STUDY DURATION: 103 WK), Tumor Site: Type of Lesion: HEMATOPOIETIC SYSTEM: LEUKEMIA): equivocal
carcinogen call (Species: RAT, Strain/Sex: F344/MALE, Route: ORAL, Dose: 0, 1000, 2000 PPM IN DIET FOR 103 WK (STUDY DURATION: 103 WK), Dose: 0, 1000, 2000 PPM IN DIET FOR 103 WK (STUDY DURATION: 103 WK), Tumor Site: Type of Lesion: HEMATOPOIETIC SYSTEM: LEUKEMIA): equivocal
carcinogen call (Species: Rat, Strain/Sex: Wistar-Furth/Female (?/group with maximum of 8 pups per dam), Route: Osmotic pump to dams, Dose: 0, 2.5, 25, 250, 1000 ug/kg bw/day from embryonic day 9 to postnatal day 1, study duration 50 or 95 postnatal days, Dose: 0, 2.5, 25, 250, 1000 ug/kg bw/day from embryonic day 9 to postnatal day 1, study duration 50 or 95 postnatal days, Tumor Site: Type of Lesion: Mammary gland, ductal hyperplasia): active; positive (significant increase at all dose levels at pnd 50; significant at 2.5

NCCN
carcinogen call (Species: MOUSE, Strain/Sex: C3H/MALE, Route: DERMAL, Dose: 0, 25 µL OF A 1% DEIONIZED WATER SOLUTION 3/WK FOR LIFESPAN (STUDY DURATION: LIFESPAN)): inactive; negative
carcinogen call (Species: RAT, Strain/Sex: F344/FEMALE, Route: ORAL, Dose: 0, 20, 100, 350 MG/KG/D IN DIET FOR 104 WK (STUDY DURATION: 104 WK), Dose: 0, 20, 100, 350 MG/KG/D IN DIET FOR 104 WK (STUDY DURATION: 104 WK)): inactive; negative
carcinogen call (Species: RAT, Strain/Sex: F344/MALE, Route: ORAL, Dose: 0, 20, 100, 350 MG/KG/D IN DIET FOR 104 WK (STUDY DURATION: 104 WK), Dose: 0, 20, 100, 350 MG/KG/D IN DIET FOR 104 WK (STUDY DURATION: 104 WK)): inactive; negative

Nc1ccc(-c2ccc(F)cc2)cc1
carcinogen call (Species: MOUSE, Strain/Sex: CBA/FEMALE, Route: GAVAGE, Dose: 0, 0.05 ML OF 1% IN ARACHIS OIL 2/WK FOR 6 MO FOR AN ESTIMATED TOTAL DOSE OF 0, 13 MG (STUDY DURATION: 119 WK), Dose: 0, 0.05 ML OF 1% IN ARACHIS OIL 2/WK FOR 6 MO FOR AN ESTIMATED TOTAL DOSE OF 0, 13 MG (STUDY DURATION: 119 WK), Tumor Site: Type of Lesion: LIVER: HEPATOMA): active; positive
carcinogen call (Species: MOUSE, Strain/Sex: CBA/MALE, Route: GAVAGE, Dose: 0, 0.05 ML OF 1% IN ARACHIS OIL 2/WK FOR 6 MO FOR AN ESTIMATED TOTAL DOSE OF 0, 13 MG (STUDY DURATION: 109 WK), Dose: 0, 0.05 ML OF 1% IN ARACHIS OIL 2/WK FOR 6 MO FOR AN ESTIMATED TOTAL DOSE OF 0, 13 MG (STUDY DURATION: 109 WK), Tumor Site: Type of Lesion: LIVER: HEPATOMA): active; positive

CCCc1cc2ccccc2c2ccc3c(c12)C1OC1C(O)C3O (stereo not drawn)
carcinogen call (Species: MOUSE, Strain/Sex: ICR/FEMALE, Route: INTRAPERITONEAL, Dose: 0, 8 NMOL IN 5 µL DMSO ON D 1, 16 NMOL IN 10 µL ON D 8 AND 32 NMOL IN 20 µL ON D 15 OF LIFE (STUDY DURATION: 35 WK)): inactive; negative
carcinogen call (Species: MOUSE, Strain/Sex: ICR/MALE, Route: INTRAPERITONEAL, Dose: 0, 8 NMOL IN 5 µL DMSO ON D 1, 16 NMOL IN 10 µL ON D 8 AND 32 NMOL IN 20 µL ON D 15 OF LIFE (STUDY DURATION: 35 WK)): inactive; negative

c1ccc2ncccc2c1
carcinogen call (Species: MOUSE, Route: ORAL, Tumor Site: Type of Lesion: LIVER): active; positive
carcinogen call (Species: MOUSE, Strain/Sex: CD-1/FEMALE, Route: INTRAPERITONEAL, Dose: 0, 0.25, 0.5, 1.0 UMOL IN DMSO TO NEWBORN MICE ON DAYS 1, 8 AND 15 OF LIFE RESPECTIVELY (TOTAL DOSE: 1.75 UMOL) (STUDY D, Dose: 0, 0.25, 0.5, 1.0 UMOL IN DMSO TO NEWBORN MICE ON DAYS 1, 8 AND 15 OF LIFE RESPECTIVELY (TOTAL DOSE: 1.75 UMOL) (STUDY D): inactive; negative
carcinogen call (Species: MOUSE, Strain/Sex: CD-1/FEMALE, Route: INTRAPERITONEAL, Dose: 0, 1.75 UMOL/MOUSE (TOTAL DOSE) ADMINISTERED DURING DAYS 1, 8, AND 15 OF LIFE (STUDY DURATION: 52 WK)): inactive; negative
carcinogen call (Species: MOUSE, Strain/Sex: CD-1/MALE, Route: INTRAPERITONEAL, Dose: 0, 0.25, 0.5, 1.0 UMOL IN DMSO TO NEWBORN MICE ON DAY 1,8 AND 15 OF LIFE RESPECTIVELY (TOTAL DOSE: 1,75 UMOL) (STUDY DUR, Dose: 0, 0.25, 0.5, 1.0 UMOL IN DMSO TO NEWBORN MICE ON DAY 1,8 AND 15 OF LIFE RESPECTIVELY (TOTAL DOSE: 1,75 UMOL) (STUDY DUR, Tumor Site: Type of Lesion: LIVER: HEPATOMA, ADENOMA): active; positive
carcinogen call (Species: MOUSE, Strain/Sex: CD-1/MALE, Route: INTRAPERITONEAL, Dose: 0, 1.75 UMOL/MOUSE (TOTAL DOSE) ADMINISTERED DURING DAYS 1, 8, AND 15 OF LIFE (STUDY DURATION: 52 WK), Tumor Site: Type of Lesion: LIVER: ADENOMA OR CARCINOMA): active; positive
carcinogen call (Species: RAT, Route: ORAL, Tumor Site: Type of Lesion: LIVER): active; positive
carcinogen call (Species: RAT, Strain/Sex: SPRAGUE-DAWLEY/FEMALE, Route: SUBCUTANEOUS, Dose: 0, 200 UMOL/KG IN DMSO INTO SUPRASCAPULAR AREA ON DAY 1 OF LIFE FOLLOWED BY 0, 100 UMOL 1/WK AT WK 2-7 THEN 0, 200 UMOL/, Dose: 0, 200 UMOL/KG IN DMSO INTO SUPRASCAPULAR AREA ON DAY 1 OF LIFE FOLLOWED BY 0, 100 UMOL 1/WK AT WK 2-7 THEN 0, 200 UMOL/): inactive; negative
carcinogen call (Species: RAT, Strain/Sex: SPRAGUE-DAWLEY/MALE, Route: SUBCUTANEOUS, Dose: 0, 200 UMOL/KG IN DMSO INTO SUPRASCAPULAR AREA ON DAY 1 OF LIFE FOLLOWED BY 0, 100 UMOL 1/WK AT WK 2-7 THEN 0, 200 UMOL/, Dose: 0, 200 UMOL/KG IN DMSO INTO SUPRASCAPULAR AREA ON DAY 1 OF LIFE FOLLOWED BY 0, 100 UMOL 1/WK AT WK 2-7 THEN 0, 200 UMOL/): inactive; negative
carcinogen call (Species: RAT, Strain/Sex: WISTAR/MALE, Route: ORAL, Dose: 0, 0.25% IN DIET FOR 4 WK (STUDY DURATION: 20 WK)): inactive; negative
carcinogen call (Species: RAT, Strain/Sex: WISTAR/MALE, Route: ORAL, Dose: 0, 0.25% IN DIET FOR 8 WK (STUDY DURATION: 20 WK)): inactive; negative
carcinogen call (Species: RAT, Strain/Sex: WISTAR/MALE, Route: ORAL, Dose: 0, 0.25% IN DIET FOR 12 WK (STUDY DURATION: 20 WK), Tumor Site: Type of Lesion: LIVER: HEMANGIOENDOTHELIOMA): active; positive
carcinogen call (Species: RAT, Strain/Sex: WISTAR/MALE, Route: ORAL, Dose: 0, 0.25% IN DIET FOR 16 WK (STUDY DURATION: 20 WK), Tumor Site: Type of Lesion: LIVER: HEMANGIOENDOTHELIOMA): active; positive
carcinogen call (Species: RAT, Strain/Sex: WISTAR/MALE, Route: ORAL, Dose: 0, 0.25% IN DIET FOR 20 WK (STUDY DURATION: 20 WK), Tumor Site: Type of Lesion: LIVER: HEMANGIOENDOTHELIOMA): active; positive

O=CC(O)C(O)C(O)C(O)COC1OC(COC2OC(CO)C(O)C(O)C2O)C(O)C(O)C1O (stereo not drawn)
carcinogen call (Species: RAT, Strain/Sex: ACI/FEMALE, Route: ORAL, Dose: 0, 2.5% (MOL. WT. 21500) IN DIET FOR 480 D (STUDY DURATION: 480 D)): inactive; negative
carcinogen call (Species: RAT, Strain/Sex: ACI/MALE, Route: ORAL, Dose: 0, 2.5% (MOL. WT. 21500) IN DIET FOR 480 D (STUDY DURATION: 480 D)): inactive; negative
